pEC50: −log10 of the molar value. Where only a bound is given, the exact number is not on record here.

The target of the experiment is T1, PKM2 (Homo sapiens, UniProt P14618).
T1 construct: PKM2 stock enzyme solution was diluted in Reaction Buffer
T1 sequence (P14618 whole entry): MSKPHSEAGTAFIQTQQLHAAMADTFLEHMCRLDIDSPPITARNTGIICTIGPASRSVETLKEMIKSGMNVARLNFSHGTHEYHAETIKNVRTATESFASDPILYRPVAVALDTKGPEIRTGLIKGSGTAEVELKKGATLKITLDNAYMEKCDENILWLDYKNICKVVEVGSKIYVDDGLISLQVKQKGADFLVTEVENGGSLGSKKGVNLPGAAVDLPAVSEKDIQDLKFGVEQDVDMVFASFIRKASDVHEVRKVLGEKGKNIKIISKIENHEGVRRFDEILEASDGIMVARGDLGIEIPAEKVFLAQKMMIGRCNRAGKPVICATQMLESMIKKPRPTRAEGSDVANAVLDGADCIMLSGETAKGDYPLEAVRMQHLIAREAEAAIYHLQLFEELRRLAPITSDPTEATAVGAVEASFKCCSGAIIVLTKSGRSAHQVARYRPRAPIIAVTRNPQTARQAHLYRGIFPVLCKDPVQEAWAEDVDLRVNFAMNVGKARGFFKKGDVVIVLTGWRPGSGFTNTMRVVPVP
As to the kind of experiment: PKM2 Assay (activation, LDH-coupled NADH absorbance at 340 nm). The conditions noted are these: activation of PKM2. Type of experiment: biochemical. The method, then:
• PKM2 stock enzyme solution was diluted in Reaction Buffer • 2 μL of compound was added into each well first, and then 180 μL of the Reaction Mix was added. • Reaction mixture with compound (without ADP) were incubated for 30 minutes at 4° C. • Plates were re-equilibrated to room temperature prior to adding 20 μL ADP to initiate the reaction. • Reaction progress was measured as changes in absorbance at 340 nm wavelength at room temperature (25° C.) Reaction Mix: PKM2 (50 ng/well), ADP (0.7 mM), PEP (0.15 mM), NADH (180 μM), LDH (2 units) in Reaction Buffer Reaction Buffer: 100 mM KCl, 50 mM Tris pH 7.5, 5 mM MgCl2, 1 mM DTT, 0.03% BSA.
By pEC50 is commonly meant the EC50 on a negative log10 scale, so that one unit is a factor of ten. Read a low pEC50 as a large EC50. Turning to `CN1C(=O)C(=O)c2cc(S(=O)(=O)N3CCN(C(=O)COc4ccccc4)CC3)ccc21`, the pEC50 is 4.00 to 5.00. For `COc1ccc(Cl)cc1S(=O)(=O)N1CCN(C(=O)COc2ccc(-n3cnnn3)cc2)CC1` the value was 4.00 to 5.00; for `CC(C)(C)OCC(=O)N1CCN(S(=O)(=O)c2ccc3sc(=O)sc3c2)CC1`, 4.00 to 5.00; for `O=C(CCc1ccccc1)N1CCN(S(=O)(=O)c2ccc3ccccc3c2)CC1`, greater than 5.00. For `O=C(C1CCCCC1)N1CCN(S(=O)(=O)c2cccc(C(F)(F)F)c2)CC1` the value was greater than 5.00; for `Cc1ccc(SCC(=O)N2CCN(S(=O)(=O)c3ccc4ccccc4c3)CC2)cc1`, greater than 5.00. Take `O=C(COc1ccc(-n2cnnn2)cc1)N1CCN(S(=O)(=O)c2cccc3ccccc23)CC1`: the pEC50 is greater than 5.00. For `O=C(OCc1cccnc1)N1CCN(S(=O)(=O)c2ccc3ccccc3c2)CC1`, the pEC50 was greater than 5.00. For `Cc1cc(C)cc(OCC(=O)N2CCN(S(=O)(=O)c3ccc4ccccc4c3)CC2)c1` the value was greater than 5.00; for `O=C(Cc1ccc(C(F)(F)F)cc1)N1CCN(S(=O)(=O)c2cccc3ccccc23)CC1`, greater than 5.00; for `O=C(Cc1ccc(C(F)(F)F)cc1)N1CCN(S(=O)(=O)c2cc(Cl)cc(Cl)c2)CC1`, 4.00 to 5.00. The molecule `O=C(C1CC1c1ccc(C(F)(F)F)cc1)N1CCN(S(=O)(=O)c2ccc3ccccc3c2)CC1` (stereo not drawn) showed a pEC50 greater than 5.00. For `O=C(CNc1ccccc1)N1CCN(S(=O)(=O)c2ccc3ccccc3c2)CC1` the value was greater than 5.00; for `CN1C(=O)COc2ccc(S(=O)(=O)N3CCN(C(=O)COc4ccccc4)CC3)cc21`, 4.00 to 5.00. In turn, `O=C(CC1CC1)N1CCN(S(=O)(=O)c2ccc3ccccc3c2)CC1` showed a pEC50 greater than 5.00. Under `Cc1ccc(OCC(=O)N2CCN(S(=O)(=O)c3ccc4ccccc4c3)CC2)cc1` stands greater than 5.00.

With `O=C(COc1ccc(C(F)(F)F)cc1)N1CCN(S(=O)(=O)c2ccc3c(c2)OCCO3)CC1`, the pEC50 is less than 4.00. For the molecule `O=C(COc1cccnc1)N1CCN(S(=O)(=O)c2ccc3ccccc3c2)CC1`, the pEC50 was greater than 5.00. Under `O=C(COc1ccc(-n2cnnn2)cc1)N1CCN(S(=O)(=O)c2cccc3cccnc23)CC1` stands 4.00 to 5.00; under `O=C(COc1ccc(-n2cnnn2)cc1)N1CCN(S(=O)(=O)c2cccn2-c2ncc(C(F)(F)F)cc2Cl)CC1`, 4.00 to 5.00.

Molecule `O=C(COc1ccccc1)N1CCN(S(=O)(=O)c2ccccc2)CC1` gave a pEC50 greater than 5.00. `O=C(COc1ccccc1)N1CCN(S(=O)(=O)c2cccc3ccccc23)CC1` showed a pEC50 greater than 5.00. As to `O=C(C1CC1c1ccc(C(F)(F)F)cc1)N1CCN(S(=O)(=O)c2ccc3c(c2)OCCO3)CC1` (stereo not drawn), the pEC50 was greater than 5.00. Under `O=C(Cc1ccc(C(F)(F)F)cc1)N1CCN(S(=O)(=O)c2cc(C(F)(F)F)cc(C(F)(F)F)c2)CC1` stands less than 4.00; under `O=C(OCc1ccccc1)N1CCN(S(=O)(=O)c2ccccc2)CC1`, greater than 5.00. Consider `COc1ccc(OCC(=O)N2CCN(S(=O)(=O)c3ccc4ccccc4c3)CC2)cc1`, for which the pEC50 was greater than 5.00. Consider `O=C(COc1ccccc1)N1CCN(S(=O)(=O)c2cccc3cccnc23)CC1`, for which the pEC50 is greater than 5.00.

`O=C(COc1ccc(-n2cnnn2)cc1)N1CCN(S(=O)(=O)c2ccc3ccccc3c2)CC1` had a pEC50 greater than 5.00. Under `O=C(OCc1ccccc1)N1CCN(S(=O)(=O)c2ccc3ccccc3c2)CC1` stands greater than 5.00; under `O=C(C1CCCCC1)N1CCN(S(=O)(=O)c2ccc3ccccc3c2)CC1`, greater than 5.00. Under `O=C(COc1ccccc1)N1CCN(S(=O)(=O)c2ccc3ccccc3c2)CC1` stands greater than 5.00; under `O=C(CSc1ccc(Cl)cc1Cl)N1CCN(S(=O)(=O)c2ccc3ccccc3c2)CC1`, greater than 5.00.

`O=C(COc1ccc(-n2cnnn2)cc1)N1CCN(S(=O)(=O)c2c(F)cccc2F)CC1` showed a pEC50 greater than 5.00. For `O=C(CCc1ccc(C(F)(F)F)cc1)N1CCN(S(=O)(=O)c2ccc3ccccc3c2)CC1` the value was greater than 5.00; for `O=C(COc1ccc(-n2cnnn2)cc1)N1CCN(S(=O)(=O)c2ccc(F)cc2)CC1`, greater than 5.00; for `COC(=O)c1ccc(OCC(=O)N2CCN(S(=O)(=O)c3ccc4ccccc4c3)CC2)cc1`, greater than 5.00.

The molecule `O=C(Cc1ccc(C(F)(F)F)cc1)N1CCN(S(=O)(=O)c2ccc3ccccc3c2)CC1` showed a pEC50 greater than 5.00. The molecule `O=C(COCc1ccccc1)N1CCN(S(=O)(=O)c2ccc3ccccc3c2)CC1` showed a pEC50 greater than 5.00. For `O=C(C1CC1c1ccc(C(F)(F)F)cc1)N1CCN(S(=O)(=O)c2cc(C3CC3)cc(C(F)(F)F)c2)CC1` (stereo not drawn) the value was greater than 5.00. In turn, `O=C(COc1ccccc1)N1CCN(S(=O)(=O)c2ccc(F)cc2)CC1` showed a pEC50 greater than 5.00. Under `O=C(COc1ccc(-n2cnnn2)cc1)N1CCN(S(=O)(=O)c2ccccc2)CC1` stands greater than 5.00. For `O=C(CSc1ccc(F)cc1)N1CCN(S(=O)(=O)c2ccc3ccccc3c2)CC1` the value was greater than 5.00.

The values are drawn from patent US9115086B2, “Therapeutic compositions and related methods of use” (AGIOS PHARMACEUTICALS, INC., priority 2009, dated 2015).
